Experimental data from doi:10.1101/2025.11.20.689572v1 (biorxiv, 2025).
Where two headings read alike, the source gives them in different places.

Legend:
M4 = molecular target: T1, M4 (Homo sapiens, UniProt P08173); experiment: competitive radioligand binding, HEK293 membranes
T1 construct: gene CHRM4; full-length receptor; HEK293 with TRUPATH sensors (function)
T1 sequence (P08173 1-479): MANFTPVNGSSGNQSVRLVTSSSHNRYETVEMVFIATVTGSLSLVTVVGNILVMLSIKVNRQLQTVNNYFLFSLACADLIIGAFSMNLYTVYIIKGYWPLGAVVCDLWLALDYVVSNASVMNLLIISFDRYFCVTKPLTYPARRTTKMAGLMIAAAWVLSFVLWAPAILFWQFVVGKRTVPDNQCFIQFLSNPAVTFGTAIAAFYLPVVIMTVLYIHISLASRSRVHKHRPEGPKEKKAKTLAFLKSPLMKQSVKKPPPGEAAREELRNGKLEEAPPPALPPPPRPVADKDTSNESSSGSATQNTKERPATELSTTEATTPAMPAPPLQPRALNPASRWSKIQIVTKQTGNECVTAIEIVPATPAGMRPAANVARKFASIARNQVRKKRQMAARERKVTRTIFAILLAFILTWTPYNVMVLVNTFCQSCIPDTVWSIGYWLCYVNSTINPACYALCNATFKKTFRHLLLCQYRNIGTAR

M1 = molecular target: T2, M1 (Homo sapiens, UniProt P11229); experiment: competitive radioligand binding, HEK293 membranes
T2 construct: gene CHRM1; full-length receptor; HEK293 with TRUPATH sensors (function)
T2 sequence (P11229 1-460): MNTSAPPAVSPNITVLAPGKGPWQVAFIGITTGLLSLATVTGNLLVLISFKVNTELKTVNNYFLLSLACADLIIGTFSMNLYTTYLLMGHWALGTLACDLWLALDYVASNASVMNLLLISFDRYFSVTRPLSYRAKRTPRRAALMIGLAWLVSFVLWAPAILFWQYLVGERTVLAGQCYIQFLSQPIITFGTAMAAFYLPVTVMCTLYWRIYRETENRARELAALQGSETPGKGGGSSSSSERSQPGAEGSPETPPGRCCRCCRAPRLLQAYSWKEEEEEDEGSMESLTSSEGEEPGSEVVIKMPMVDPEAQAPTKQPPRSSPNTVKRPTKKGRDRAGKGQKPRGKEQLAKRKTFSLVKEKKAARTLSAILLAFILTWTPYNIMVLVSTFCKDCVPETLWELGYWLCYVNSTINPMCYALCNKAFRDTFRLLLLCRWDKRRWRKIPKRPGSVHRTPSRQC

HTR2C [1] = molecular target: T3, HTR2C (Homo sapiens, UniProt P28335); experiment: cell-based; design: species or system HEK293; Fluo-4 Direct calcium mobilization on FLIPR-Tetra; details: HEK293, read-out: N-Desmethyl Xanomeline; Assay=Calcium; agonist mode, % of control agonist
T3 sequence (P28335 1-458): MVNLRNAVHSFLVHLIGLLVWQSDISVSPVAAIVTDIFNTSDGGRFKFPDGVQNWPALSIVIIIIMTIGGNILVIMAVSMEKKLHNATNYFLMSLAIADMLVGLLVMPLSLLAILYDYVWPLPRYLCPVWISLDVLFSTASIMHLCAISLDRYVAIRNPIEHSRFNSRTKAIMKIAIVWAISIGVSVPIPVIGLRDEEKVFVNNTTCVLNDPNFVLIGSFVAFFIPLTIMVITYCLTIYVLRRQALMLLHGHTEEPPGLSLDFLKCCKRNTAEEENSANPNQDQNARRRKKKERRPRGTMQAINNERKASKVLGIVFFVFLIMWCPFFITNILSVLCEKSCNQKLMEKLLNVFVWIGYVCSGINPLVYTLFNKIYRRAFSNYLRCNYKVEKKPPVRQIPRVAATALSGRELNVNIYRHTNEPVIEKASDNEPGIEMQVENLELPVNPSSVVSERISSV

HRH4 = HRH4 (Homo sapiens, UniProt Q9H3N8); experiment: cell-based; design: species or system HEK293; TRUPATH BRET2 G-protein dissociation; antagonist mode against agonist EC80; details: N-Desmethyl Xanomeline, agonist mode
Chain of HRH4 (Q9H3N8 whole entry): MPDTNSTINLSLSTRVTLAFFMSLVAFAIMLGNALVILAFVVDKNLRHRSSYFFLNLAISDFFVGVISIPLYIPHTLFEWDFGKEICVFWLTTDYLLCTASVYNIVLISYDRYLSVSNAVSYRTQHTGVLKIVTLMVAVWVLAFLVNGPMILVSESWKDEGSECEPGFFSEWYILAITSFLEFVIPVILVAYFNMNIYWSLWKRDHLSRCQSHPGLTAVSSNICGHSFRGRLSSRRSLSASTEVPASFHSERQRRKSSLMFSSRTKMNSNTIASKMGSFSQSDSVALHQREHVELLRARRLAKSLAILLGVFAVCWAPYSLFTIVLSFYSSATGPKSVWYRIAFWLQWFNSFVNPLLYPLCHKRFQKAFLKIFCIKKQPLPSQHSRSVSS

HTR1D = HTR1D (Homo sapiens, UniProt P28221); experiment: cell-based; design: species or system HEK293; TRUPATH BRET2 G-protein dissociation; antagonist mode against agonist EC80; details: N-Desmethyl Xanomeline, agonist mode
Chain of HTR1D (P28221 whole entry): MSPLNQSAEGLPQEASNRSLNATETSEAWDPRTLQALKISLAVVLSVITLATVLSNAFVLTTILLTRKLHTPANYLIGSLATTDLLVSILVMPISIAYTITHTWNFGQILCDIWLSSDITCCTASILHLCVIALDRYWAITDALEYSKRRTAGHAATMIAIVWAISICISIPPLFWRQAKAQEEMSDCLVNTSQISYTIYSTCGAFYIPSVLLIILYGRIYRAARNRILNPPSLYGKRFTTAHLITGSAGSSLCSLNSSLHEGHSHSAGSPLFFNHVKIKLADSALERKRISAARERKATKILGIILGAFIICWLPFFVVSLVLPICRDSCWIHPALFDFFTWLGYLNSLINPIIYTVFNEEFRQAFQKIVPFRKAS

HTR2C [2] = molecular target: T3, HTR2C; experiment: cell-based; design: species or system HEK293; TRUPATH BRET2 G-protein dissociation; antagonist mode against agonist EC80; details: Assay=Gq; agonist mode
HTR2A [3] = molecular target: T4, HTR2A (Homo sapiens, UniProt P28223); experiment: cell-based; design: Fluo-4 Direct calcium mobilization on FLIPR-Tetra; details: HEK293, read-out: N-Desmethyl Xanomeline; Assay=Calcium; agonist mode, % of control agonist
T4 sequence (P28223 whole entry): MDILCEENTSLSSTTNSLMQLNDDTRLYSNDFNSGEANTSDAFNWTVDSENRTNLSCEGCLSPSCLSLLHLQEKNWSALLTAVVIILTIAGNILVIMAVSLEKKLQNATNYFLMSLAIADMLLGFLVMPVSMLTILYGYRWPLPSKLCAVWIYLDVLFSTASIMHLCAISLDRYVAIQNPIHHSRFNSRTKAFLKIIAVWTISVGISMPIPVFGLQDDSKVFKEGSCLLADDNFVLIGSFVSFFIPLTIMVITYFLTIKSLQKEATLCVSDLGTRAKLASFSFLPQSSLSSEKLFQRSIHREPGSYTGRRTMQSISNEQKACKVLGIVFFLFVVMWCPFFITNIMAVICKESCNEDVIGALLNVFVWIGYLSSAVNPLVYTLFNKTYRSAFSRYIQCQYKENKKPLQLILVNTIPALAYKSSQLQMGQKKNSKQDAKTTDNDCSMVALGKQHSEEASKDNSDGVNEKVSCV

HTR2A [4] = molecular target: T4, HTR2A; experiment: cell-based; design: TRUPATH BRET2 G-protein dissociation; antagonist mode against agonist EC80; details: HEK293, read-out: N-Desmethyl Xanomeline, Assay=Gq; agonist mode, % of control agonist
CHRM3 [5] = molecular target: T5, CHRM3 (Homo sapiens, UniProt P20309); experiment: cell-based
T5 sequence (P20309 whole entry): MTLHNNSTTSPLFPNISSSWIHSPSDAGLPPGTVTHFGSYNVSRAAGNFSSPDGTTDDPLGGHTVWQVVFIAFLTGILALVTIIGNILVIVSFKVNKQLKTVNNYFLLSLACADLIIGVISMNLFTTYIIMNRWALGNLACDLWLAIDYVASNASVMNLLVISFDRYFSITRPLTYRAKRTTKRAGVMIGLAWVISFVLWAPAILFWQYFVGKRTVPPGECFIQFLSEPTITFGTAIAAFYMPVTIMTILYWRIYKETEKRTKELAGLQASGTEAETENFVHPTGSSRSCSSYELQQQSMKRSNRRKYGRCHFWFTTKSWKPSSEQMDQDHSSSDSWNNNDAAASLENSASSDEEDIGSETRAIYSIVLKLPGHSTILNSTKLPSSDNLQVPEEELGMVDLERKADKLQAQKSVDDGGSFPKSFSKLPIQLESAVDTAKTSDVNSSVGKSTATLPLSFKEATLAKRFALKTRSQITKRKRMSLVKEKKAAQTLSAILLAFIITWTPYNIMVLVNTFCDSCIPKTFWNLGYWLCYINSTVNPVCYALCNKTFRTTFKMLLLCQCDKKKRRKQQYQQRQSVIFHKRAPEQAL

H3 = molecular target: T6, H3 (Homo sapiens, UniProt Q9Y5N1); experiment: competitive radioligand binding, HEK293 membranes
T6 construct: gene HRH3; full-length receptor; HEK293 cell membranes
T6 sequence (Q9Y5N1 whole entry): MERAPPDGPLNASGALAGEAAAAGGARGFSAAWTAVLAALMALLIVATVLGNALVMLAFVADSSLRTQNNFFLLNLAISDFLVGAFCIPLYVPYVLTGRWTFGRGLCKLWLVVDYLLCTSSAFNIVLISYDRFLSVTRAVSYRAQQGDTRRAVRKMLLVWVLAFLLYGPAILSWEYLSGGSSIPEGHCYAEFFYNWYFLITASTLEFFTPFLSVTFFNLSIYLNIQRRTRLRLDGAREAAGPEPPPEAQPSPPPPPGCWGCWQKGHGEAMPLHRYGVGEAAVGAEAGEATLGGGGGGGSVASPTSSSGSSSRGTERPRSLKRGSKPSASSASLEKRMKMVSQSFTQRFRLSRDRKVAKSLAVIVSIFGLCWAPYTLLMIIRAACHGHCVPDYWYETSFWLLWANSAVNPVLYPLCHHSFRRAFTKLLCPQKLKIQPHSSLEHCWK
Source text: competitive radioligand binding, HEK293 membranes on H3

5-HT5A = molecular target: T7, 5-HT5A (Homo sapiens, UniProt P47898); experiment: competitive radioligand binding, HEK293 membranes
T7 construct: gene HTR5A; full-length receptor; HEK293 cell membranes
T7 sequence (P47898 whole entry): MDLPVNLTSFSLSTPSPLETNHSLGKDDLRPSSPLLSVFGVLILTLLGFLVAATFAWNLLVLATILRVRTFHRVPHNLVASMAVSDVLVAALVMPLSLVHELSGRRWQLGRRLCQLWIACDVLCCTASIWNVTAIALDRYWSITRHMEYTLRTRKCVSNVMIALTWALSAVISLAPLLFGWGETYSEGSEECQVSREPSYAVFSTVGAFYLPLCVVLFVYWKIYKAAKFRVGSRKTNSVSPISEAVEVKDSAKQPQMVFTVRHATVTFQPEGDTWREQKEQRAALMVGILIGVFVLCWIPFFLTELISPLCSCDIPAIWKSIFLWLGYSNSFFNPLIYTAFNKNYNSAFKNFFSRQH
Source text: competitive radioligand binding, HEK293 membranes on 5-HT5A

CHRM3 [6] = molecular target: T5, CHRM3; experiment: cell-based; design: species or system HEK293; TRUPATH BRET2 G-protein dissociation; antagonist mode against agonist EC80; details: Xanomeline, Assay=Gq; agonist mode

Row | SMILES | Ki (M4) [nM] | Ki (M1) [nM] | Emax (HTR2C [1]) [%] | EC50 (HRH4; Assay=Gi1) [nM] | EC50 (HRH4; Assay=Gi2) [nM] | EC50 (HRH4; Assay=Gi3) [nM] | EC50 (HRH4; Assay=GoA) [nM] | EC50 (HTR1D; Assay=Gi2) [nM] | EC50 (HTR1D; Assay=GoA) [nM] | EC50 (HTR1D; Assay=GoB) [nM] | EC50 (HTR1D; Assay=Gz) [nM] | EC50 (HTR2C [2]) [nM] | Emax (HTR2A [3]) [%] | Emax (HTR2A [4]) [%] | EC50 (CHRM3 [5]) [nM] | Ki (H3) [nM] | Ki (5-HT5A) [nM] | EC50 (CHRM3 [6]) [nM]
1 | CCCCCCOc1nsnc1C1=CCCNC1 [N-desmethylxanomeline] | 117 | 219 | 59 | 4870 | 1390 | 6360 | 6250 | 36.2 | 63.1 | 25.8 | 146 | 1940 | 63.4 | 98.1 | 380 | – | – | –
2 | CCCCCCOc1nsnc1C1=CCCN(C)C1 [Xanomeline] | – | – | – | – | – | – | – | – | – | – | – | – | – | – | – | 794 | 794 | 53.4
